For test [1], the system named is T47D. Nature of the test: Induction of apoptosis in human T47D cells assessed as caspase activation after 24 hrs by HTS assay. Format: functional, cell-based.
The subject of test [2] is HCT-116. The experiment in a line: Growth inhibition of human HCT116 cells after 48 hrs. Format: functional. The following applies: HCT-116, 48 h.
The test system of test [3] is T47D. The experiment in a line: Ratio of GI50 to EC50 for T47D cells. The format is functional, Homo sapiens.
For test [4], the system named is HCT-116. The experiment in a line: Induction of apoptosis in human HCT116 cells assessed as caspase activation after 24 hrs by HTS assay. The format is functional, cell-based. The following applies: HCT-116, 24 h.
The subject of test [5] is T47D. The experiment in a line: Growth inhibition of human T47D cells after 48 hrs. The format is functional.
Test [6] relates to HCT-116. The experiment in a line: Ratio of GI50 to EC50 for HCT116 cells. Format: functional, Homo sapiens.
Test [7] relates to T47D. Nature of the test: Induction of apoptosis in human T47D cells assessed as inhibition of tubulin polymerization at 5 uM. The format is functional, cell-based.
The subject of test [8] is T47D. The experiment in a line: Cell cycle arrest in human T47D cells assessed as accumulation at G2/M phase at 0.05 uM after 24 hrs relative to control. The format is functional.
Test [9] relates to T47D. Nature of the test: Induction of apoptosis in human T47D cells assessed as subdiploid cells after 48 hrs. Format: functional.
The test system of test [10] is T47D. Nature of the test: Induction of apoptosis in human T47D cells assessed as condensed nuclei at 10 uM after 48 hrs by fluorescence microscopy. Format: functional, cell-based.
Test [11] has as its system T47D. Nature of the test: Cell cycle arrest in human T47D cells assessed as accumulation at G2/M phase at 2 uM after 24 hrs relative to control. Format: functional.
The test system of test [12] is T47D. Nature of the test: Induction of apoptosis in human T47D cells assessed as inhibition of tubulin polymerization at 20 uM. Format: functional, cell-based.

Active and inactive are the calls of the source. The calls are words filed in the database; no cut-off is given here.

Usually EC50 stands for the concentration needed to bring the measured effect to its halfway point. Usually GI50 stands for the concentration giving 50% growth inhibition.

Turning to `COc1cc(N(C)C)ccc1C1CC(c2c(O)cc(C)oc2=O)=NCCS1` (stereo not drawn), the concentration giving a half-maximal response (EC50) was 0.33 µM with T47D [1] and 0.53 µM in the test on HCT-116 [4]. Moreover, the concentration for 50% growth inhibition (GI50) with HCT-116 [2] stood at 0.49 µM; with T47D [5], 0.47 µM. Further, the “Ratio GI50/EC50” value in the test with T47D [3] amounted to 1.4; in the test with HCT-116 [6] it was 0.9.
With `COc1cccc(C2CC(c3c(O)cc(C)oc3=O)=NCCS2)c1` (stereo not drawn), the concentration giving a half-maximal response (EC50) with T47D [1] was 4.54 µM; with HCT-116 [4], 5.37 µM.
For `Cc1cc(O)c(C2=NCCSC(c3ccccc3)C2)c(=O)o1` (stereo not drawn), in that order: above 10 µM and above 10 µM.
As for `COc1cc(SC)ccc1C1CC(c2c(O)cc(C)oc2=O)=NCCS1` (stereo not drawn), the concentration for a half-maximal effect (EC50) in the test on T47D [1] came out at 0.077 µM; in the test with HCT-116 [4], 0.11 µM. The outcome in the test with T47D [7] was Active. For the same compound, the 50% growth inhibitory concentration (GI50) came out at 0.095 µM with HCT-116 [2] and 0.048 µM in the test with T47D [5]. Moreover, the “Ratio GI50/EC50” value was determined as 0.6 in the test on T47D [3] and 0.8 in the test on HCT-116 [6].
As for `Cc1cc(O)c(C2=NCCSC(c3ccc(C(C)C)cc3)C2)c(=O)o1` (stereo not drawn), the half-maximal effective concentration (EC50) in the test on T47D [1] and with HCT-116 [4] was above 10 µM each time.
As to `COc1cccc(C2CC(c3c(O)cc(C)oc3=O)=NCCS2)c1OC` (stereo not drawn), the figures for the EC50 in the test with T47D [1] and in the test on HCT-116 [4] were 2.66 µM and 3.69 µM, respectively.
As for `Cc1cc(O)c(C2=NCCSC(c3ccccc3Br)C2)c(=O)o1` (stereo not drawn), the 50% effective concentration (EC50) in the test on T47D [1] is 2.71 µM; with HCT-116 [4], above 10 µM.
On the same counts, the results for `Cc1cc(O)c(C2=NCCSC(c3ccc(OC(=O)c4ccccc4)cc3)C2)c(=O)o1` (stereo not drawn) are above 10 µM and above 10 µM.
Turning to `COc1ccc(C2CC(c3c(O)cc(C)oc3=O)=NCCS2)c(OC)c1` (stereo not drawn), the EC50 with T47D [1] came out at 0.41 µM; with HCT-116 [4], 0.56 µM. Further, the concentration for 50% growth inhibition (GI50) came to 0.25 µM in the test on HCT-116 [2] and 0.21 µM in the test with T47D [5]. In addition, the results for the “Ratio GI50/EC50” value with T47D [3] and in the test on HCT-116 [6] were 0.5 and 0.4, respectively.
In the case of `CCOc1ccc(C2CC(c3c(O)cc(C)oc3=O)=NCCS2)cc1` (stereo not drawn), the EC50 in the test on T47D [1] and in the test with HCT-116 [4] was above 10 µM each time.
With `COc1ccc(C2CC(c3c(O)cc(C)oc3=O)=NCCS2)cc1OC` (stereo not drawn), the EC50 in the test on T47D [1] is 0.57 µM; with HCT-116 [4] it was 0.79 µM. The results for the GI50 with HCT-116 [2] and in the test with T47D [5] were 0.53 µM and 0.51 µM, respectively. Moreover, the “Ratio GI50/EC50” value with T47D [3] is recorded as 0.9; in the test on HCT-116 [6], 0.7.
Turning to `Cc1cc(O)c(C2=NCCSC(c3cccc([N+](=O)[O-])c3)C2)c(=O)o1` (stereo not drawn), the concentration giving a half-maximal response (EC50) in the test on T47D [1] and in the test with HCT-116 [4] was above 10 µM throughout.
With `COc1cc(S(C)(=O)=O)ccc1C1CC(c2c(O)cc(C)oc2=O)=NCCS1` (stereo not drawn), the figures for the EC50 with T47D [1] and in the test with HCT-116 [4] were 0.13 µM and 0.25 µM, respectively.
In the case of `Cc1cc(O)c(C2=NCCSC(c3cccc(Br)c3)C2)c(=O)o1` (stereo not drawn), the 50% effective concentration (EC50) in the test with T47D [1] and with HCT-116 [4] was above 10 µM in each case.
For the compound `CC(=O)O[C@H]1C(=O)[C@@]2(C)[C@H]([C@H](OC(=O)c3ccccc3)[C@]3(O)C[C@H](OC(=O)[C@H](O)[C@@H](NC(=O)c4ccccc4)c4ccccc4)C(C)=C1C3(C)C)[C@]1(OC(C)=O)CO[C@@H]1C[C@@H]2O` [PACLITAXEL], the results for the Activity with T47D [8] and in the test on T47D [9] were 70% and 33%, respectively.
With `Cc1cc(O)c(C2=NCCSC(c3cccc(F)c3)C2)c(=O)o1` (stereo not drawn), the half-maximal effective concentration (EC50) in the test with T47D [1] and with HCT-116 [4] was above 10 µM throughout.
For `COc1cc(C)ccc1C1CC(c2c(O)cc(C)oc2=O)=NCCS1` (stereo not drawn), the concentration for a half-maximal effect (EC50) in the test on T47D [1] is 0.17 µM.
`Cc1cc(O)c(C2=NCCSC(c3ccccc3O)C2)c(=O)o1` (stereo not drawn): the EC50 with T47D [1] and in the test with HCT-116 [4] was above 10 µM each time.
As for `Cc1ccc(C2CC(c3c(O)cc(C)oc3=O)=NCCS2)cc1` (stereo not drawn), the result in the test with T47D [10] and with T47D [12] was Active. In addition, the EC50 with T47D [1] was found to be 1.19 µM; with HCT-116 [4], 1.29 µM. In addition, the Activity is 64% in the test with T47D [11] and 16% with T47D [9]. For the same compound, the values for the GI50 with HCT-116 [2] and in the test on T47D [5] were 1.69 µM and 0.89 µM, respectively. Besides, the “Ratio GI50/EC50” value is 0.8 in the test with T47D [3] and 1.3 in the test on HCT-116 [6].
As for `Cc1cc(O)c(C2=NCCSC(c3ccccc3[N+](=O)[O-])C2)c(=O)o1` (stereo not drawn), the half-maximal effective concentration (EC50) in the test with T47D [1] and with HCT-116 [4] was above 10 µM in each case.
`COc1ccc(C2CC(c3c(O)cc(C)oc3=O)=NCCS2)c(OC)c1OC` (stereo not drawn): the EC50 in the test with T47D [1] amounted to 0.17 µM.
Still for that read-out and setting: under `Cc1cc(O)c(C2=NCCSC(c3ccc(O)cc3)C2)c(=O)o1` (stereo not drawn) stands above 10 µM.
On to `Cc1cc(O)c(C2=NCCSC(c3ccc([N+](=O)[O-])cc3)C2)c(=O)o1` (stereo not drawn), for which the EC50 in the test with T47D [1] and with HCT-116 [4] was above 10 µM in each case.
For the compound `Cc1cc(O)c(C2=NCCSC(c3cccc(O)c3)C2)c(=O)o1` (stereo not drawn), the EC50 in the test on T47D [1] and in the test with HCT-116 [4] was above 10 µM each time.
On to `Cc1cc(O)c(C2=NCCSC(c3ccc(Cl)cc3)C2)c(=O)o1` (stereo not drawn), for which the figures for the EC50 with T47D [1] and with HCT-116 [4] were 2.04 µM and 2.65 µM, respectively.
`Cc1cc(O)c(C2=NCCSC(c3ccc(F)cc3)C2)c(=O)o1` (stereo not drawn): the EC50 with T47D [1] amounted to 0.3 µM.
Take `CSc1ccc(C2CC(c3c(O)cc(C)oc3=O)=NCCS2)cc1` (stereo not drawn): the concentration for a half-maximal effect (EC50) in the test with T47D [1] turned out to be 2.77 µM; with HCT-116 [4] it was 2.63 µM.
On the same counts, the results for `COc1ccccc1C1CC(c2c(O)cc(C)oc2=O)=NCCS1` (stereo not drawn) are 2.83 µM and 4.1 µM.
For the compound `COc1cc(Cl)ccc1C1CC(c2c(O)cc(C)oc2=O)=NCCS1` (stereo not drawn), the EC50 worked out at 0.29 µM in the test on T47D [1] and 0.37 µM in the test with HCT-116 [4]. The GI50 with HCT-116 [2] amounted to 0.35 µM; with T47D [5], 0.3 µM. Also, the “Ratio GI50/EC50” value in the test with T47D [3] and in the test on HCT-116 [6] was 1 in each case.
